Columns and labels:
[1] = tested on: epithelial tumor cell lines, HUVECs; test: Apoptotic assay with gp 120 and Nef peptides; type: cell-based, human
Text: The nef protein was expressed and purified in the inventors' laboratory. overlapping 20 mer peptides encompassing the entire nef protein and overlapping 15 mer peptides encompassing the entire gp 120 protein were obtained from the NIH AIDS Research & Reference Reagent Program (McKesson HBC BioServices, MD) Other specific peptides designed from within gp 120 or nef were obtained from SigmaGenosys.
Apoptosis, Terminal Deoxynucleotidyl Transferase dUTP Nick-end Labeling (TUNEL) Assay
Apoptosis generates DNA free ends which can be labeled in situ using terminal deoxynucleotidyl-transferase (TdT), incorporating an exogenously added labeled nucleotide to the DNA strand. This label can then be visualized directly by fluorescence or indirectly using anti-FITC-peroxidase, and a calorimetric assay. Cells on coverslips were washed with PBS, and fixed for 30 minutes at RT with 4% paraformaldehyde, in PBS, pH 7.4. They were then washed with PBS, and permeabilized with 0.1% Triton X-100
for 10 minutes at room temperature (RT). The slides were rinsed twice with PBS, and air dried for 2 minutes. The manufacturer's procedure for TUNEL staining the slides was followed (manufacturer's procedure for the In Situ Cell Death Detection Kit, AP; Boehringer Mannheim, Indianapolis, Ind.). Total cell counts were determined by counterstaining fixed cultures with 20 μg/ml of Hoechst 33258. All specimens were observed by epifluorescence on a computer-controlled microscope system based on a Zeiss Axioskop microscope (Carl Zeiss, Thornwood, N.Y.), and the images were obtained and examined using a charged coupled device (CCD) camera, MagnaFire, model S99806 (Olympus American, Melville, N.Y.). Images were examined using Image-Pro Plus 4.1 for Windows (Media Cybernetics, Silver Springs, Md.) software.
Overlapping peptide sets obtained from the AIDS Reagent Bank were used in the apoptotic assay as disclosed above. Specific pg 120 and Nef peptides within those sets were identified as inducing apoptosis in epithelial tumor cell lines, as well as in HUVECs. Alternatively, these same peptides had no effect in primary mammary epithelium or in MDA-MB-468 tumor lines.

[2] = tested on: MDA-MB-231, MCF7, DU4475; test: Agarose gel electrophoresis/DNA fragmentation, CXCR4 expressing cell lines; type: cell-based, human; conditions: 10 mM (6.35 mg/ml) ceramide
Protocol: Apoptosis Assay: Agarose Gel Electrophoresis/DNA Fragmentation
Untreated or treated cells were collected, and DNA was harvested from normal or cancer cell cultures. Briefly, the cells were washed with PBS, pelleted at 1600 g for 20 minutes at 4° C., and resuspended in 50 mM Tris-HCl, pH 7.5, 20 mM EDTA buffer at about 10^ 7 cells/ml. The cells were then treated 2× with lysis buffer: 1.0% NP-40 (Sigma, St. Louis, Mo.) in the same Tris/EDTA buffer at RT for 2 minutes followed, by centrifugation at 1600 g for 5 minutes. After the last spin, SDS was added to the supernatant to 1% final concentration, RNase A (Sigma, St. Louis, Mo.) was added to 5 mg/mil final concentration, and the solution incubated at 56° C. for 2 hours. Subsequently, protease K (Promega, Madison, Wis.) was added to the solution to 2.5. µg/ml and incubated at 37° C. for 2.5 hr. Ammonium acetate was added to 4 M final concentration, 0.7 volumes of isopropanol was added, the solution was put at −20° C. overnight followed by centrifugation at 14,000 rpm for 30 minutes. The pellets were washed twice with 70% ethanol, dried and resuspended in 10 mM Tris-HCl, pH […]. DNA samples, 18 µg per condition, were prepared in neutral loading buffer to a final concentration of 0.02% bromophenol blue, 5% glycerol, 0.1% SDS, and 50 µg of ethidium bromide, loaded onto a neutral agarose gel (1.7%), and run at50V for 2.5 hours. […]

## GRAFYTT [Seq. I.D. No. 9, motif within the V3 loop of Gp 120, amino acids 315 to 321]
[1]
  apoptotic/modulator properties of peptide or motif: apoptosis-inducing motif

## GRAFYTTKY [Seq. I.D. No. 11]
[1]; equivalent molar ration (9 mer peptide is 2% of the full protein)
  apoptosis relative to that observed from the full gp 120 protein: about 60%

## ALAETCONAWA [Seq. I.D. No. 8, reference compound]
[1]
  apoptotic/modulator properties of peptide or motif: lost all apoptotic effects

## Ceramide
[2]
  DNA laddering, positive control: DNA laddering characteristic of apoptotic cells was observed

## NAACAWLEAQ [Seq. I.D. No. 7, 10 mer peptide spanning amino acids 50-60 of the Nef protein]
[1]; equivalent molar ration (10 mer peptide is 5% the amount of full protein)
  apoptosis relative to that observed for the full Nef protein: ~100%

Source: patent US7312305B2, “Tumor cytotoxicity induced by modulators of the CXCR4 receptor” (Morehouse School of Medicine, priority 2003, dated 2007)
